Where “and” joins values, the source holds several entries; their conditions need not be identical. Equal values may be shown once.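 Grown in 96-well plates, cells were treated for 48 hours with each compound at five concentrations. Insufficient inhibition: endpoint recorded as highest concentration tested. Abbreviation: GI50, concentration required for 50% inhibition of growth. TGI is the concentration that stops growth completely.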
Experiments:
Assay in all cases: DTP human tumour cell line panel, 48 h
HT29 colon = system: HT29 colon
HS 578T breast = system: HS 578T breast
COLO 205 colon = system: COLO 205 colon
K-562 leukemia = system: K-562 leukemia
OVCAR-5 ovarian = system: OVCAR-5 ovarian
SF-268 CNS = system: SF-268 CNS
LOX IMVI melanoma = system: LOX IMVI melanoma
HCT-15 colon = system: HCT-15 colon
RPMI-8226 leukemia = system: RPMI-8226 leukemia
UACC-257 melanoma = system: UACC-257 melanoma

| Structure (SMILES) | GI50 (HT29 colon) | TGI (HT29 colon) | GI50 (HS 578T breast) | TGI (HS 578T breast) | GI50 (COLO 205 colon) | TGI (COLO 205 colon) | GI50 (K-562 leukemia) | TGI (K-562 leukemia) | GI50 (OVCAR-5 ovarian) | TGI (OVCAR-5 ovarian) | GI50 (SF-268 CNS) | TGI (SF-268 CNS) | GI50 (LOX IMVI melanoma) | TGI (LOX IMVI melanoma) | GI50 (HCT-15 colon) | TGI (HCT-15 colon) | GI50 (RPMI-8226 leukemia) | TGI (RPMI-8226 leukemia) | TGI (UACC-257 melanoma) | GI50 (UACC-257 melanoma) |
| --- | --- | --- | --- | --- | --- | --- | --- | --- | --- | --- | --- | --- | --- | --- | --- | --- | --- | --- | --- | --- |
| O=C(Nc1cnn2ccc(N3CCC[C@@H]3c3cc(F)ccc3F)nc12)N1CC[C@H](O)C1 | > 100 µM | > 100 µM | > 100 µM | > 100 µM | > 100 µM | > 100 µM | > 100 µM | > 100 µM | > 100 µM | > 100 µM | > 100 µM | > 100 µM | > 100 µM | > 100 µM | > 100 µM | > 100 µM | > 100 µM | > 100 µM |  |  |
| CO[C@H]1[C@H](O)[C@H](O[C@H]2CC[C@@]3(C)[C@H](CC[C@@H]4[C@@H]3CC[C@]3(C)[C@@H](C5=CC(=O)OC5)CC[C@]43O)C2)O[C@@H](C)[C@@H]1O |  | 0.00148 µM |  | < 0.0001 µM |  | 0.00509 µM and 0.0316 µM | 0.00062 µM | 0.0647 µM |  |  |  | 0.00183 µM and 0.0166 µM |  | 0.00271 µM and < 0.0111 µM |  | 0.00255 µM and < 0.0124 µM |  | 0.00542 µM | 0.00571 µM and < 0.0137 µM |  |
| C(CCc1nnc2c(n1)CCCC2)Cc1nnc2c(n1)CCCC2 |  | > 100 µM |  | > 100 µM |  | > 100 µM |  | > 100 µM |  | > 100 µM |  | > 100 µM |  | > 100 µM |  | > 100 µM |  | > 100 µM |  |  |
| CCC(=O)OC1CCn2c1nc1c2C(=O)C(C)=C(N2CC2)C1=O (configuration not stated) |  | 1.09 µM and 0.495 µM |  | 0.78 µM | 0.101 µM | 0.235 µM and 0.561 µM | 0.128 µM and 0.739 µM |  | 0.0743 µM | 0.589 µM and 0.229 µM | 0.0309 µM | 1.22 µM and 0.254 µM | 0.0311 µM | 0.0886 µM and 0.243 µM | 0.0204 µM | 0.209 µM and 0.0527 µM |  |  | 0.0629 µM and 0.152 µM | 0.0261 µM |
| COc1ncc(-c2nc3c(n2C(C)C)[C@H](c2ccc(Cl)cc2)N(c2cc(Cl)cn(C)c2=O)C3=O)c(OC)n1 | 41.7 µM | > 100 µM | 32.6 µM | > 100 µM | 36.9 µM | > 100 µM |  |  | > 100 µM | > 100 µM | 71.5 µM | > 100 µM | 11.2 µM | > 100 µM | 34.5 µM | > 100 µM | 24.5 µM | 87.5 µM | 94.4 µM | 17.2 µM |
| COc1cc2c3c(n(CCN)c(=O)c2cc1OC)-c1cc2c(cc1C3=O)OCO2 |  |  | 1.85 µM | 4.51 µM | 0.8 µM | 4.4 µM | 0.0969 µM | > 100 µM | 1.95 µM | 3.74 µM | 0.749 µM | 3.18 µM | 0.235 µM |  | 0.471 µM |  | < 0.0159 µM | 0.303 µM | 11.2 µM | 3.84 µM |
| CCOc1ccccc1NC(=O)CCc1nnc2s/c(=C\CCc3ccccc3)c(=O)n12 |  | > 100 µM |  |  |  | > 100 µM |  | > 100 µM |  | > 100 µM |  | > 100 µM |  | > 100 µM |  | > 100 µM |  | > 100 µM | > 100 µM |  |
| Cc1ccc(S(=O)(=O)N2CCC3(C(/C=C/c4ccccc4)=Nc4ccccc43)C2c2ccccc2)cc1 (configuration not stated) |  | > 100 µM |  |  |  | > 100 µM |  | > 100 µM |  | > 100 µM |  | > 100 µM |  | > 100 µM |  | > 100 µM |  | > 100 µM | > 100 µM |  |
| Cc1ccc(S(=O)(=O)Oc2ccc3c4c(c(=O)oc3c2)CCCCC4)cc1 | 4.06 µM | > 100 µM | 96.2 µM | > 100 µM | 4.05 µM | > 100 µM | 3.51 µM | > 100 µM | > 100 µM | > 100 µM | > 100 µM | > 100 µM | > 100 µM | > 100 µM | 3.66 µM | > 100 µM | 4.55 µM | > 100 µM |  |  |
| Cc1c(O)c(=O)ccn1C1OC(CO)C(O)C1O (configuration not stated) |  | > 100 µM |  |  |  | > 100 µM |  | > 100 µM |  | > 100 µM |  | > 100 µM |  | > 100 µM |  | > 100 µM |  | > 100 µM | > 100 µM |  |
| CC(=O)OCC1OC(OC2CC3C(C)(C)C(OC(C)=O)CC[C@]3(C)C3CCC45CC4(CC[C@H]5C(C)CC(O)C4OC4(C)C)[C@]23C)C(O)C(O)C1O (some centres not stated) | 1.86 µM | 1.73 µM and 3.38 µM |  |  | 2.05 µM | 1.84 µM and 3.79 µM |  | 2.22 µM | 2.02 µM | 2.52 µM and 4.46 µM | 3.67 µM | 9.14 µM and 14.5 µM | 1.25 µM | 3.72 µM and 2.58 µM | 4.04 µM | 6 µM and 13.3 µM |  | 5 µM | 7.28 µM and 14.7 µM | 4.1 µM |
| COc1ccc2nc(NCCCNCCO)c3sc4ccc(F)cc4c(=O)c3c2c1 | 1.58 µM | 3.23 µM | 1.6 µM | 3.57 µM | 1.8 µM | 3.77 µM |  |  | 1.5 µM | 2.87 µM | 1.45 µM | 3.15 µM | 1.48 µM | 2.9 µM | 1.28 µM | 2.64 µM |  |  | 4.04 µM | 1.89 µM |
| O=C(CC/C(C/C(=N/O)c1ccc(F)cc1)=N/O)N(Cc1ccccc1)Cc1ccccc1 |  | > 100 µM |  |  |  | > 100 µM |  | > 100 µM |  | > 100 µM |  | > 100 µM |  | > 100 µM |  | > 100 µM |  | > 100 µM | > 100 µM |  |
| COc1cccc(/C=C/C(=O)c2ccc(Cl)cc2Cl)c1OC | 5.04 µM | 17.3 µM |  | 39.8 µM | 5.44 µM | 17.4 µM | 2.39 µM | 5.72 µM | 17.1 µM | 30.9 µM | 12.9 µM | 41.5 µM | 2.64 µM | 6.88 µM | 3.76 µM | 12.9 µM |  |  | 23.2 µM | 11.2 µM |
| COc1cc(-c2oc3c(OC)c(OC)cc(O)c3c(=O)c2OC)ccc1O |  | > 100 µM |  | 29.7 µM |  | > 100 µM |  | > 50 µM |  | > 50 µM | 34.4 µM and 15.3 µM | > 100 µM | 1.88 µM and 7.95 µM | > 100 µM and 36.3 µM |  | > 100 µM |  |  | > 100 µM |  |
| COc1cc(NN=C(c2ccc(O)cc2)c2ccc(O)cc2)c([N+](=O)[O-])cc1[N+](=O)[O-] | 10.9 µM | 25.6 µM |  |  | 11.2 µM | 23.2 µM | 3.92 µM | > 100 µM | 18.8 µM | 40.1 µM | 6.64 µM | 25.5 µM | 3.76 µM | 18.6 µM | 5.75 µM | 20.1 µM | 1.5 µM | > 100 µM | 29.3 µM | 15.5 µM |
| Cc1ccc(S(=O)(=O)CNC(=S)CCCC(=S)NCS(=O)(=O)c2ccc(C)cc2)cc1 |  | > 100 µM |  |  |  | > 100 µM |  | > 100 µM |  | > 100 µM |  | > 100 µM |  | 39.4 µM |  | > 100 µM |  | > 100 µM | > 100 µM |  |
